We go through twelve molecules from ChEMBL document CHEMBL1201862, “PubChem BioAssay data set” (2004).

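Dose response: 5 concentrations. Exposure: 48 h. Format: 96-well plates. Endpoint: linear interpolation; highest concentration if not reached. GI50 marks 50% less growth.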 The source made the active and inactive calls. No stated cut-off is given here; in the data, active = GI50 up to about 1.1 µM and inactive = higher.

What all share (assay): inhibition of tumour cell growth, NCI panel, 48 h
Experiment [1] relates to HCT-15.
The test system of experiment [2] is OVCAR-4.
For experiment [3], the system named is SK-MEL-5.
Experiment [4] deals with OVCAR-5.
In experiment [5] the test system is CCRF-CEM.
For experiment [6], the system named is HCC 2998.
Experiment [7] concerns LOX IMVI.
Experiment [8] deals with NCI-H460.
Experiment [9] has as its system UO-31.
The subject of experiment [10] is DU-145.
The subject of experiment [11] is CAKI-1.
Experiment [12] concerns TK-10.
Experiment [13] deals with SF-539.
For experiment [14], the system named is HOP-62.
Experiment [15] deals with SR.
Experiment [16] has as its system SK-OV-3.
Experiment [17] concerns HCT-116.
For experiment [18], the system named is MDA-N.
Experiment [19] has as its system T47D.

Turning to `CC1=C(C)SC(=C2Sc3[n-]c(=O)[nH]c(=O)c3S2)S1.CCCC[N+](CCCC)(CCCC)CCCC`, the GI50 in experiment [1] is > 100 µM; in experiment [2], > 100 µM (inactive); in experiment [3] it was 28.5 µM (inactive); in experiment [4] it was > 100 µM (inactive); in experiment [5], 40.4 µM (inactive); in [6], > 100 µM (inactive). The GI50 is 44.6 µM (inactive) in experiment [7]; > 100 µM (inactive) in experiment [8]; > 100 µM (inactive) in experiment [9]; > 100 µM (inactive) in [10]; > 100 µM (inactive) in experiment [11]; > 100 µM (inactive) in [12]. Moreover, the GI50 was 44.5 µM (inactive) in experiment [13]; > 100 µM (inactive) in [14]; 35.9 µM (inactive) in [15]; > 100 µM (inactive) in experiment [16]; > 100 µM (inactive) in [17].
Take `CC(C)(C)OC(=O)N[C@H]1CCN(C2CCCCC2)C1=O`: the GI50 in experiment [1] is > 100 µM; in experiment [3] it was > 100 µM (inactive); in experiment [4] it was > 100 µM (inactive); in experiment [5] it was > 100 µM (inactive); in experiment [6], > 100 µM (inactive); in experiment [7], > 100 µM (inactive). Moreover, the GI50 in experiment [8], in [9], in experiment [18], in [10], in experiment [12] and in experiment [13] was > 100 µM (inactive) each time. Further, the GI50 in experiment [14] is > 100 µM (inactive); in [15], > 10 µM (inactive); in experiment [16], > 100 µM (inactive); in experiment [17], > 100 µM (inactive).
For the molecule `NS(=O)(=O)c1cc2c(cc1Cl)N=C(CCC(=O)O)NS2(=O)=O`, the GI50 in experiment [1] is > 100 µM; in experiment [2], > 100 µM (inactive); in [19], > 100 µM (inactive); in [3], > 100 µM (inactive); in [4] it was > 100 µM (inactive); in experiment [7], > 100 µM (inactive). Besides, the GI50 in experiment [8], in experiment [9], in [18], in [10], in experiment [11] and in [12] was > 100 µM (inactive) throughout. Besides, the GI50 in experiment [13], in experiment [14], in experiment [16] and in [17] was > 100 µM (inactive) each time.
With `COc1cc2c(cc1OC)C(=O)N1CCCC1C(=O)S2` (stereo unspecified), the GI50 in experiment [1] is > 100 µM; in [3], > 100 µM (inactive); in [4] it was > 100 µM (inactive); in [5], > 100 µM (inactive); in experiment [6], > 100 µM (inactive); in [7] it was > 100 µM (inactive). Moreover, the GI50 in experiment [8], in [9], in [12], in [13], in experiment [14] and in [15] was > 100 µM (inactive) in each case. The GI50 in experiment [16] and in experiment [17] was > 100 µM (inactive) each time.
`O=C(O[C@@H](/C=C/c1ccccc1)P1(=O)N(Cc2ccccc2)[C@@H]2CCCC[C@H]2N1Cc1ccccc1)c1ccccc1`: the GI50 in experiment [1] was 2.99 µM; in experiment [2], 1.88 µM (inactive); in [19], 0.0984 µM (active); in experiment [3], 1.99 µM (inactive); in experiment [4], 4.86 µM (inactive); in experiment [5] it was 2.31 µM (inactive). The GI50 in experiment [6] was 7.93 µM (inactive); in experiment [7] it was 3.15 µM (inactive); in [8], 3.53 µM (inactive); in experiment [9] it was 3.4 µM (inactive); in experiment [18] it was 3.33 µM (inactive); in [11], 1.48 µM (inactive). Besides, the GI50 in experiment [12] is > 100 µM (inactive); in [13], 4.68 µM (inactive); in [14] it was 6.79 µM (inactive); in experiment [15], 2.68 µM (inactive); in experiment [16], 5.92 µM (inactive); in [17] it was 2.61 µM (inactive).
As to `O=[N+]([O-])C(/C(Cl)=C(/Cl)N1CCOCC1)=C1\NCCO1`, the GI50 in experiment [1] is > 100 µM; in experiment [2] it was > 100 µM (inactive); in experiment [19], > 100 µM (inactive); in experiment [4], > 100 µM (inactive); in experiment [5], > 100 µM (inactive); in experiment [6], > 100 µM (inactive). Besides, the GI50 in [8], in experiment [9], in experiment [18], in experiment [10], in experiment [11] and in [13] was > 100 µM (inactive) throughout. In addition, the GI50 in experiment [14], in experiment [16] and in experiment [17] was > 100 µM (inactive) each time.
In the case of `CSC1=N/C(=C\c2c[nH]c3ccccc23)C(=O)N1`, the GI50 is 75.3 µM in experiment [1]; 71.4 µM (inactive) in experiment [2]; 53.2 µM (inactive) in [19]; 39.4 µM (inactive) in [3]; > 100 µM (inactive) in [4]; > 100 µM (inactive) in experiment [5]. The GI50 in [6] was 21.9 µM (inactive); in experiment [7] it was 78.3 µM (inactive); in [8], 49.7 µM (inactive); in experiment [9], 35.8 µM (inactive); in experiment [10] it was 96.8 µM (inactive); in [12], 66.7 µM (inactive). Moreover, the GI50 in experiment [13] is > 100 µM (inactive); in experiment [14], 76.9 µM (inactive); in [15], 97.7 µM (inactive); in experiment [16], > 100 µM (inactive); in experiment [17], 70.3 µM (inactive).
Consider `O=c1c2c(oc3ccccc13)-c1ccccc1OC2`, for which the GI50 is > 100 µM in [1]; 16.3 µM (inactive) in [19]; 44.8 µM (inactive) in experiment [3]; > 100 µM (inactive) in experiment [4]; > 100 µM (inactive) in experiment [5]; > 100 µM (inactive) in experiment [6]. Moreover, the GI50 in experiment [7] is 46 µM (inactive); in experiment [9], 28.6 µM (inactive); in experiment [18] it was > 100 µM (inactive); in experiment [10] it was 53.3 µM (inactive); in experiment [11], 26.1 µM (inactive); in experiment [12], > 100 µM (inactive). Also, the GI50 in experiment [13] was 25.2 µM (inactive); in experiment [14], 88.9 µM (inactive); in [16] it was 20.2 µM (inactive); in experiment [17] it was 29.9 µM (inactive).
`N#Cc1c(N2CCN(c3ccc([N+](=O)[O-])cc3)CC2)[n+]([O-])c2ccc(-c3ccc([N+](=O)[O-])cc3)cc2[n+]1[O-]`: the GI50 was > 85.5 µM in experiment [1]; > 31.2 µM (inactive) in experiment [2]; 3.58 µM (inactive) in [19]; 4.18 µM (inactive) in [3]; 30.7 µM (inactive) in experiment [4]; 1.28 µM (inactive) in [5]. In addition, the GI50 in [7] is 0.9 µM (active); in [8], 2.5 µM (inactive); in experiment [9] it was 8.59 µM (inactive); in experiment [18] it was 31.8 µM (inactive); in experiment [10] it was 21.2 µM (inactive); in experiment [11], 5.35 µM (inactive). For the same molecule, the GI50 in [12] is > 56.8 µM (inactive); in [13], 38.7 µM (inactive); in experiment [14], 1.82 µM (inactive); in [16], > 100 µM (inactive); in experiment [17], 4.56 µM (inactive).
Consider `COC(=O)/C=C\COCC1C2CCC(=O)C21` (stereo unspecified), for which the GI50 was 9.57 µM in experiment [1]; > 25 µM (inactive) in experiment [2]; 22.9 µM (inactive) in experiment [3]; > 25 µM (inactive) in experiment [4]; 5.66 µM (inactive) in experiment [5]; > 25 µM (inactive) in experiment [6]. Besides, the GI50 in experiment [7] is 14.5 µM (inactive); in [8], 6.79 µM (inactive); in experiment [9], 11.6 µM (inactive); in experiment [18] it was > 25 µM (inactive); in experiment [10] it was > 25 µM (inactive); in [11], 0.632 µM (active). Also, the GI50 in [12] is 13 µM (inactive); in experiment [13], 7.16 µM (inactive); in [14], > 25 µM (inactive); in experiment [15] it was 8.3 µM (inactive); in experiment [16] it was > 25 µM (inactive); in [17] it was 16.3 µM (inactive).
On to `CC(C)(C)[C@H]1NC(=O)CN1C(=O)OCc1ccccc1`, for which the GI50 is > 100 µM in experiment [1]; > 100 µM (inactive) in [2]; 60.8 µM (inactive) in experiment [19]; 85.9 µM (inactive) in experiment [3]; > 100 µM (inactive) in experiment [4]; > 100 µM (inactive) in experiment [5]. Further, the GI50 in experiment [6] was > 100 µM (inactive); in [7] it was 43.6 µM (inactive); in experiment [8] it was > 100 µM (inactive); in [9] it was 9.35 µM (inactive); in experiment [10] it was > 100 µM (inactive); in [12], > 100 µM (inactive). Further, the GI50 was > 100 µM (inactive) in experiment [13]; > 100 µM (inactive) in experiment [14]; 20 µM (inactive) in experiment [15]; > 100 µM (inactive) in experiment [16]; 67.3 µM (inactive) in experiment [17].
Regarding `COc1cc(OC)c2c(C)cc(=O)oc2c1`, the GI50 is 56.5 µM in [1]; > 100 µM (inactive) in experiment [2]; > 100 µM (inactive) in experiment [3]; > 100 µM (inactive) in experiment [4]; > 100 µM (inactive) in experiment [5]; 47.1 µM (inactive) in experiment [7]. Further, the GI50 in experiment [9] is 20.3 µM (inactive); in [18], > 100 µM (inactive); in experiment [10], 52.7 µM (inactive); in [12], 66.4 µM (inactive); in [13], 34.8 µM (inactive); in experiment [14], > 100 µM (inactive). Also, the GI50 in [15] is 45.1 µM (inactive); in experiment [16] it was > 100 µM (inactive); in experiment [17] it was 43.1 µM (inactive).
